From PMC9409361, “EsigGOBP1: The Key Protein Binding Alpha-Phellandrene in Endoclita signifer Larvae” (International Journal of Molecular Sciences, 2022)
“Also recorded” adds a separate entry of the source. Like-named read-outs stand apart in the source and are kept apart here.

Key:
recombinant EsigGOBP1 = assay: Fluorescence competition binding assay (FCBA) with 1-NPN probe; set-up: species or system Endoclita signifer; conditions: for binding affinities for EsigGOBP1 (in words): FCBA, ordered by Kd values; for Ki: calculated from IC50: Ki = [IC50]/(1 + [1-NPN]/K1-NPN); for IC50: competitive binding, 1-NPN and EsigGOBP1 both at 2 μM, ligands 2–24 μM, pH 7.4
Experimental: N-phenyl-1-naphthylamine (1-NPN) was selected for use as a selectively fluorescent probe to measure the affinity of ligand binding to recombinant EsigGOBP1 [20, 42]. Twelve volatiles (Table 1) from eucalyptus trunks and humus soil under eucalyptus plantation were collected, identified and screened using the dynamic headspace adsorption method, gas chromatograph coupled to mass selective detector, gas chromatograph electroantennal detection and Y-tube olfactometer bioassay (Table S1). […] A 2 μM solution of EsigGOBP1 was prepared in 20 mM Tris-HCl buffer (pH 7.4), and the ligands were dissolved in chromatographically pure methanol as 1 mM stock solutions. […] Intensity values corresponding to maximum fluorescence emission were plotted against free ligand concentrations to determine dissociation constants. K1-NPN values were calculated by Scatchard plots to linearize curves.

[1] = tested on: EsigGOBP1 expression in the head of E. signifer larvae; assay: qRT-PCR expression of EsigGOBP1 in larval heads after exposure to volatiles; assay type: in vivo, Endoclita signifer
Experimental: The 3rd and 5th instar larvae of E. signifer were exposed to 12 GC-EAD active volatile compounds (Table S1). The exposure method followed that of Llopis-Gimenez and Hu. Thirty-three 5th instar larvae were exposed to ten compounds and only methanol (control) with three biological replicates (50 μL of each odorant diluted to 10 g/L in methanol in a 50 mL jar for 24 h). Thereafter, the total RNA from the heads of these larvae were extracted and its concentration and purity measured. The residual genomic DNA in the total RNA was removed using DNase I (Thermo Scientific, Waltham, MA, USA) then purified RNA used to synthesize cDNA following the method of Zhang. The treatments carried out on the 5th instar larvae, were the same as applied to 3rd instar larvae (n = 27) (eight compounds, one control; three biological replicates). The sequence of the gene-specific primers of EsigGOBP1 were as follow: forward primer: 5′-[…]-3′; reverse primer: 5′-[…] TCTCGT-3′ [37]. Roche LIGHT CYCLE 480II (USA) and Genious 2X SYBR Green Fast qPCR Mix (No ROX) (No. RK21205; ABclonal, Wuhan, China) were used for a PCR reaction under a three-step amplification program. Each 20 µL real-time fluorescence quantification PCR (qRT-PCR) reaction mixture contained 10 µL of Genious 2X SYBR Green Fast qPCR Mix, […] ([…]), 2 µL of sample cDNA (2.5 ng of RNA), and […] of dH2O (sterile distilled water), with the following cycling parameters: 95 °C for 180 s, followed by 40 cycles of 95 °C for 5 s, 60 °C for 30 s, and 65 °C to 95 °C in increments of 0.5 °C for 5 s to generate melting curves. The sequences of the primers of the reference gene, GADPH were forward primer 5′-[…]-3′; reverse primer 5′-[…]-3′ [60]. The measurement of the expression of EsigGOBP1 in head, thorax and abdomen of 3rd instar larvae followed the protocol of Zhang. Each qRT-PCR reaction for each volatile exposure and tissues, was performed in three biological replicates and three technical replicates in Roche LIGHT CYCLE 480II. The expression of EsigGOBP1, from exposure to o-cymene and camphene served as the control for the 3rd and 5th instar larvae, respectively, and GADPH was used to measure the relative gene expressions by the 2^−ΔΔCT method. The 2^−ΔCT method was used to measure gene expressions in the tissues of 3rd instar larvae with 0.91 amplicons efficiencies. Differences in the expression of olfactory proteins were determined using a one-sample t-test. All analyses were implemented in SPSS Statistics 18.0, and values are presented as means ± SE.

E. signifer larvae = conditions: cited from earlier work; for attraction in behavior choice assays: ref [33],[34]; for influence on the behaviour of E. signifier: ref [35],[36]
[2] = competitive binding against 1-NPN, read-out: calculated Kd
[3] = 5th instar larvae, 24 h exposure to volatile
[4] = 3rd instar larvae, 24 h exposure to volatile

SMILES	binding affinities for EsigGOBP1 (in words) (recombinant EsigGOBP1)	Ki (recombinant EsigGOBP1)	Kd (recombinant EsigGOBP1; [2])	IC50 (recombinant EsigGOBP1)	EsigGOBP1 expression vs control [1, 4]	also measured
CC1=CCC2CC1C2(C)C (stereo not drawn) [alpha-Pinene]	high binding affinities	1.24 µM	1.24 µM	9.86 µM		
Cc1cc(C)cc(C)c1 [1,3,5-trimethyl-benzen]	low binding affinities	4.6 µM	4.6 µM			
CCc1ccccc1C [benzene, 1-ethyl-2-methyl-]						EsigGOBP1 expression vs control [1, 3]: upregulated
CC12CCC(CC1)C(C)(C)O2 [Eucalyptol]	high binding affinities	1.27 µM	1.27 µM	10.1 µM	downregulated; also recorded: significantly lower	EsigGOBP1 expression vs control [1, 3]: downregulated; also recorded: significantly lower
c1ccc2ccccc2c1 [Naphthalene]	low binding affinities	2.69 µM	2.69 µM	21.5 µM	upregulated	
Cc1ccccc1C(C)C [o-cymene]					downregulated; also recorded: extremely significantly lower	EsigGOBP1 expression vs control [1, 3]: upregulated; attraction in behavior choice assays (E. signifer larvae; 3rd instar larvae): significantly attracted
CC(C)(O)c1ccccc1 [2-Phenyl-2-propanol]	low binding affinities	2.77 µM	2.77 µM	22 µM		
CC1=CCC2C(C1)C2(C)C (centres unmarked) [3-carene]					downregulated; also recorded: extremely significantly lower	
C=C1CCC2CC1C2(C)C (stereo not drawn) [β-Pinene]	high binding affinities	1.32 µM	1.32 µM	10.5 µM		EsigGOBP1 expression vs control [1, 3]: downregulated; EsigGOBP1 expression vs control ([1]; 5th instar larvae, 24 h exposure to volatile, listed as β-pinene): extremely significantly lower; attraction in behavior choice assays (E. signifer larvae; 5th instar larvae): significantly attracted
C=C(C)[C@H]1CC=C(C)CC1 [D-limonene]	high binding affinities	1.43 µM	1.43 µM	11.4 µM		
CCc1ccccc1CC [Benzene, 1,2-diethyl-]	high binding affinities	0.792 µM	0.79 µM	6.3 µM		EsigGOBP1 expression vs control ([1]; 5th instar larvae, 24 h exposure to volatile, 1,2-diethyl-): upregulated; influence on the behaviour of E. signifier (E. signifer larvae): no obvious influence
C=C1C2CCC(C2)C1(C)C (centres unmarked) [Camphene]	high binding affinities		0.99 µM	7.87 µM		
C=CC(=O)OCCCC [Butyl acrylate]	high binding affinities	0.901 µM	0.9 µM	7.18 µM		
CC1=CC[C@H](C(C)C)C=C1 [alpha-Phellandrene]	high binding affinities	0.889 µM	0.89 µM	7.08 µM	downregulated; also recorded: extremely significantly lower	influence on the behaviour of E. signifier (E. signifer larvae): no obvious influence
CCc1ccc(C(C)=O)cc1 [4-ethylacetophenone]					downregulated; also recorded: extremely significantly lower	
c1ccc(Nc2cccc3ccccc23)cc1 [1-NPN, N-phenyl-1-naphthylamine, reference compound]						Kd (recombinant EsigGOBP1; binding curve and Scatchard plots, 1-NPN 2–24 μM, 2 μM EsigGOBP1, read-out: dissociation constant K1-NPN): 3.38 µM
